According to the supplement of paper PMC10307832:

What was measured:
Assay in all cases: relative viability (nuclei count vs DMSO), 5 days (fraction); higher = more cells survive
[1] = compound: CC1=CN2C(=O)C=C(N=C2C(=C1)C(C)NC3=CC=CC=C3)N4CCOCC4 [TGX 221] + O=C(CCCCCCC(=O)Nc1ccccc1)NO [Vorinostat] (partner 1 µM)
How it was run: (§1)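 Cells from lung cancer lines were seeded into 1536-well plates and, one day later, dosed by pin tool. Treatments were either a single drug or a fixed dose of an anchor drug with five library-drug doses (not always all listed) in √10 steps. After 5 days, nuclei were stained in a one-step fixation (final 0.05% Triton X-100, 1% formaldehyde, 1 ug/ml Hoechst) and counted on 4× images, and relative viability is the treated-to-vehicle nuclei ratio, as the median of duplicate plates.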

[2] = compound: O=C(CCCCCCNC(=O)c1cnc(N(c2ccccc2)c2ccccc2)nc1)NO [Ricolinostat] + O=C(CCCCCCC(=O)Nc1ccccc1)NO [Vorinostat] (partner 1 µM)
How it was run: as §1

[3] = compound: CC1=CN2C(=O)C=C(N=C2C(=C1)C(C)NC3=CC=CC=C3)N4CCOCC4 [TGX 221] + Nc1ncn([C@H]2C[C@H](O)[C@@H](CO)O2)c(=O)n1 [Decitabine] (partner 2 µM)
How it was run: as §1

[4] = compound: CC1=CN2C(=O)C=C(N=C2C(=C1)C(C)NC3=CC=CC=C3)N4CCOCC4 [TGX 221] + C[C@@H](Oc1cc(-c2cnn(C3CCNCC3)c2)cnc1N)c1c(Cl)ccc(F)c1Cl [Crizotinib] (partner 1 µM)
How it was run: as §1

Row | Cell Line | relative viability ([1]; first compound 0.08 µM) | relative viability ([1]; first compound 0.253 µM) | relative viability ([1]; first compound 0.8 µM) | relative viability ([1]; first compound 2.53 µM) | relative viability ([1]; first compound 8 µM) | relative viability ([2]; first compound 0.08 µM) | relative viability ([2]; first compound 0.253 µM) | relative viability ([2]; first compound 0.8 µM) | relative viability ([2]; first compound 2.53 µM) | relative viability ([3]; first compound 0.08 µM) | relative viability ([3]; first compound 0.253 µM) | relative viability ([3]; first compound 0.8 µM) | relative viability ([3]; first compound 2.53 µM) | relative viability ([3]; first compound 8 µM) | relative viability ([4]; first compound 0.08 µM) | relative viability ([4]; first compound 0.253 µM) | relative viability ([4]; first compound 0.8 µM) | relative viability ([4]; first compound 2.53 µM) | relative viability ([4]; first compound 8 µM)
1 | NCI-H322M | 0.865 | 0.876 | 0.839 | 0.872 | 0.718 | 0.621 | 0.834 | 0.827 | 0.804 | 0.628 | 0.683 | 0.693 | 0.62 | 0.678 | 0.945 | 1.03 | 0.95 | 0.823 | 0.911
2 | NCI-H358 | 0.746 | 0.663 | 0.71 | 0.668 | 0.602 | 0.599 | 0.633 | 0.482 | 0.34 | 0.22 | 0.216 | 0.209 | 0.181 | 0.203 | 0.556 | 0.535 | 0.661 | 0.633 | 0.395
3 | NCI-H441 | 0.717 | 0.785 | 0.724 | 0.856 | 0.859 | 0.735 | 0.76 | 0.643 | 0.54 | 0.226 | 0.239 | 0.24 | 0.285 | 0.287 | 0.732 | 0.82 | 0.657 | 0.62 | 0.697
4 | NCI-H460 | 0.654 | 0.632 | 0.655 | 0.691 | 0.595 | 0.594 | 0.677 | 0.573 | 0.194 | 0.488 | 0.442 | 0.489 | 0.453 | 0.401 | 0.754 | 0.811 | 1.05 | 0.896 | 0.64
5 | NCI-H520 | 0.599 | 0.564 | 0.627 | 0.493 | 0.53 |  | 0.659 | 0.629 | 0.532 | 0.449 | 0.428 | 0.306 | 0.341 | 0.335 | 0.532 | 0.724 | 0.68 | 0.572 | 0.398
6 | NCI-H596 | 0.571 | 0.588 | 0.685 | 0.494 | 0.524 | 0.61 | 0.645 | 0.567 | 0.432 | 0.987 | 1.16 | 1.14 | 1.08 | 0.963 | 0.993 | 1.04 | 1 | 0.823 | 0.82
7 | NCI-H647 | 0.466 | 0.442 | 0.457 | 0.547 | 0.665 | 0.562 | 0.464 | 0.52 | 0.441 | 0.288 | 0.406 | 0.385 | 0.355 | 0.384 | 1.12 | 0.947 | 1.06 | 1.04 | 0.553
8 | NCI-H650 | 0.425 | 0.488 | 0.459 | 0.542 | 0.401 | 0.355 | 0.434 | 0.367 | 0.296 | 0.326 | 0.301 | 0.318 | 0.343 | 0.343 | 0.729 | 0.655 | 0.624 | 0.689 | 0.534
9 | NCI-H661 | 0.794 | 0.755 | 0.78 | 0.925 | 0.785 | 0.68 | 0.716 | 0.722 | 0.558 | 0.537 | 0.529 | 0.56 | 0.564 | 0.505 |  | 1.12 | 0.973 | 0.959 | 1.07
10 | NCI-H727 | 1.09 | 1.06 | 1.14 | 1.09 | 1.19 | 1.13 | 1.15 | 1.08 | 0.936 | 0.826 | 0.822 | 0.796 | 0.864 | 0.915 | 0.879 | 0.792 | 0.663 | 0.861 | 0.821
11 | NCI-H838 | 0.7 | 0.67 | 0.635 | 0.668 | 0.589 | 0.725 | 0.689 | 0.582 | 0.315 | 0.443 | 0.448 | 0.462 | 0.447 | 0.452 | 0.833 | 0.77 | 0.783 | 0.699 | 0.51
12 | NCI-H1355 | 0.614 | 0.577 | 0.591 | 0.629 | 0.558 | 0.64 | 0.627 | 0.619 | 0.533 | 0.35 | 0.349 | 0.355 | 0.325 | 0.309 | 1.02 | 1.07 | 1.01 | 0.913 | 0.887
13 | NCI-H1437 | 0.888 | 0.922 | 0.858 | 0.852 | 0.779 | 0.853 | 0.712 | 0.611 | 0.426 | 0.574 | 0.56 | 0.619 | 0.545 | 0.574 | 0.931 | 0.908 | 0.876 | 0.861 | 0.819
14 | NCI-H1650 | 0.482 | 0.478 | 0.521 | 0.676 | 0.48 | 0.544 | 0.535 | 0.485 | 0.372 | 0.433 | 0.376 | 0.386 | 0.486 | 0.43 | 0.828 | 0.857 | 0.875 | 0.956 | 0.545
15 | NCI-H1651 | 0.525 | 0.646 | 0.527 | 0.517 | 0.581 | 0.459 | 0.594 | 0.411 | 0.395 | 0.524 | 0.675 | 0.492 | 0.594 | 0.601 |  | 0.834 | 0.865 | 0.839 | 0.753
16 | NCI-H1666 | 0.958 | 0.963 | 1.06 | 1.06 | 1.1 | 0.933 | 1.01 | 1.01 | 0.847 | 0.649 | 0.738 | 0.76 | 0.709 | 0.664 | 1 | 0.933 | 0.988 | 0.935 | 0.957
17 | NCI-H1734 | 0.675 | 0.67 | 0.787 | 0.702 | 0.764 | 0.725 | 0.891 | 0.702 | 0.67 | 0.508 | 0.527 | 0.492 | 0.518 | 0.431 | 0.652 | 0.643 | 0.643 | 0.588 | 0.537
